According to patent publication EP0189941A2, “Antibiotic compositions” (Bristol-Myers Squibb Company, priority 1985, dated 1986):
Read-outs that look alike come from different tables or passages of the source.

What was measured:
[1] = dry state
Hygroscopicity = type: physicochemical; conditions: in words
[2] = Stability in the dry state (% loss on storage at elevated temperature); conditions: 100°C - 1 day, listed as Lyophilized anhydrous sodium cefbuperazone
[3] = tested on: weanling female Sprague-Dawley rats; test: Rat paw-lick test for pain on injection; type: in vivo; conditions: pH 5.3; 0.1 ml subplantar, 333 mg activity per ml; mean 0-3 minutes after injection ± Standard Error
Experimental: The test animals were weanling female Sprague-Dawley rats. The test solutions were injected into the subplantar tissue of the right or left hind paw, using a syringe with a 27 gauge, 1/2-inch needle. […] The paw-lick response, an indicator of the pain caused by the injection, was recorded for each rat for three minutes following the injection. A paw-licking episode is defined as a licking response followed by a turning of the head away from the paw or five seconds of uninterrupted licking.

[4] = pH of unit dosage forms reconstituted with Sterile Water for Injection; type: physicochemical; conditions: diluted with Sterile Water for Injection, U.S.P. to 333 mg of cefbuperazone activity per ml
[5] = Intravenous toxicity test (LD50); conditions: mouse, in vivo, mice, dosing solution 333 mg of cefbuperazone activity per ml, parentheses = 95% confidence limits
Experimental: Intravenous toxicity tests were conducted in Swiss-Webster mice using the sodium salt of cefbuperazone and the compositions of the present invention. In each case, the dosing solution contained 333 mg of cefbuperazone activity per ml.

physchem = conditions: dry state, % Loss
[6] = Source text: The most preferred pH range of the reconstituted solution is about 4 to about 5, because pain upon injection normally increases with […].
For this reason, it is not possible to give absolute gram amounts of cefbuperazone and lysine, arginine, lysine acetate and/or arginine acetate to produce a specific pH. The amount of each ingredient can readily be determined for individual batches of the two components by titration of the cefbuperazone with the other component.

CCN1CCN(C(=O)NC(C(=O)NC2(OC)C(=O)N3C(C(=O)O)=C(CSc4nnnn4C)CSC32)C(C)O)C(=O)C1=O (stereo not shown) [Cefbuperazone free acid hemiacetonate]
% Loss ([1]; 48 h): 0% | % Loss ([1]; 336 h): 0% | hygroscopicity (Hygroscopicity): non- hygroscopic

CCN1CCN(C(=O)NC(C(=O)NC2(OC)C(=O)N3C(C(=O)O)=C(CSc4nnnn4C)CSC32)C(C)O)C(=O)C1=O (stereo not shown) [sodium cefbuperazone]
% Loss [2]: melts/decomposes | Paw-Lick Response [3]: 5.20 ± 1.31 (10) | pH of Solution [4]: 5.3 | % Loss ([1]; 72 h): 37.2% | % Loss ([1]; 336 h): 38.0% | % Loss ([1]; 1344 h): 35.0% | LD50 [5]: > 5000 mg/kg

CCN1CCN(C(=O)NC(C(=O)NC2(OC)C(=O)N3C(C(=O)O)=C(CSc4nnnn4C)CSC32)C(C)O)C(=O)C1=O (stereo not shown) [Cefbuperazone free acid dihydrate]
degraded at 168 h (physchem): 3.7% | degraded at 840 h (physchem): 0% | degraded at 1008 h (physchem): 1.8% | % Loss ([1]; 24 h): + 4.5% | % Loss ([1]; 48 h): + 3.3% | % Loss ([1]; 336 h): + 4.6% | % Loss ([1]; 1344 h): + 2.2% | water solubility [6]: insufficiently water-soluble | pH at which solution of the cefbuperazone takes place ([6]; 264.4 mg suspended in 10 ml of water, titrated with aqueous L(+) lysine): ~3.5

CCN1CCN(C(=O)NC(C(=O)NC2(OC)C(=O)N3C(C(=O)O)=C(CSc4nnnn4C)CSC32)C(C)O)C(=O)C1=O (stereo not shown) [Anhydrous cefbuperazone free acid]
% Loss ([1]; 72 h): 7.8% | % Loss ([1]; 168 h): 4.1% | % Loss ([1]; 672 h): 3.4%
